Source: a compilation of properties of binary mixtures (doi:10.1016/j.molliq.2017.07.014)

Experiment: xn = mol fraction of the nth substance listed
Conditions: 101 kPa

CN1CCCC1=O + CCCC[P+](C)(CCCC)CCCC.COS(=O)(=O)[O-]
x2 = 0
Conditions	speed of sound [m/s]	viscosity [mPa·s]
293.15 K	1570	1.9
298.15 K	1566	1.66
303.15 K	1552	1.49
308.15 K	1527	1.38
313.15 K	1518	1.3
318.15 K	1497	1.21
323.15 K	1491	1.15

CCCC[P+](C)(CCCC)CCCC.COS(=O)(=O)[O-] + CN1CCCC1=O
Conditions	speed of sound [m/s]	viscosity [mPa·s]
293.15 K, x1 = 0.056	1574	9.6
293.15 K, x1 = 0.0914	1580	19.6
293.15 K, x1 = 0.1311	1585	28
293.15 K, x1 = 0.1773	1588	43
293.15 K, x1 = 0.2318	1590	67
293.15 K, x1 = 0.2971	1587	100
293.15 K, x1 = 0.3764	1582	138
293.15 K, x1 = 0.4752	1578	188
293.15 K, x1 = 0.6014	1575	290
293.15 K, x1 = 0.7129	1573	440
293.15 K, x1 = 0.8515	1568	580
293.15 K, x1 = 0.9022	1566	630
293.15 K, x1 = 0.9468	1565	680
293.15 K, x1 = 1	1564	730
298.15 K, x1 = 0.0914	1576	13.2
298.15 K, x1 = 0.1311	1580	18
298.15 K, x1 = 0.1773	1584	23.7
298.15 K, x1 = 0.2318	1585	39
298.15 K, x1 = 0.2971	1581	51
298.15 K, x1 = 0.4752	1572	114
298.15 K, x1 = 0.6014	1567	170
298.15 K, x1 = 0.8515	1553	410
298.15 K, x1 = 0.9022	1551	450
298.15 K, x1 = 0.9468	1549	490
303.15 K, x1 = 0.056	1556	2.01
303.15 K, x1 = 0.1311	1564	7.8
303.15 K, x1 = 0.3764	1561	40
303.15 K, x1 = 0.4752	1557	65
303.15 K, x1 = 0.6014	1552	108
303.15 K, x1 = 0.7129	1548	198
303.15 K, x1 = 0.8515	1538	300
303.15 K, x1 = 1	1530	380
308.15 K, x1 = 0.056	1536	2.01
308.15 K, x1 = 0.0914	1540	2.5
308.15 K, x1 = 0.1311	1544	3.4
308.15 K, x1 = 0.1773	1548	6.4
308.15 K, x1 = 0.2318	1549	8.9
308.15 K, x1 = 0.2971	1546	13.9
308.15 K, x1 = 0.3764	1542	20.5
308.15 K, x1 = 0.4752	1539	31
308.15 K, x1 = 0.6014	1536	67
308.15 K, x1 = 0.7129	1533	131
308.15 K, x1 = 0.8086	1528	192
308.15 K, x1 = 0.8515	1524	221
308.15 K, x1 = 0.9022	1522	245
308.15 K, x1 = 0.9468	1519	270
308.15 K, x1 = 1	1514	290
313.15 K, x1 = 0.0914	1536	2.21
313.15 K, x1 = 0.1311	1539	3.2
313.15 K, x1 = 0.2318	1542	6.8
313.15 K, x1 = 0.2971	1539	12.1
313.15 K, x1 = 0.3764	1535	15.2
313.15 K, x1 = 0.4752	1531	17.7
313.15 K, x1 = 0.6014	1526	45
313.15 K, x1 = 0.7129	1522	95
313.15 K, x1 = 0.8086	1517	144
313.15 K, x1 = 0.8515	1515	166
313.15 K, x1 = 0.9022	1509	186
313.15 K, x1 = 0.9468	1507	201
313.15 K, x1 = 1	1499	217
318.15 K, x1 = 0.056	1511	1.1
318.15 K, x1 = 0.0914	1518	2.5
318.15 K, x1 = 0.1311	1522	4.5
318.15 K, x1 = 0.1773	1523	6.4
318.15 K, x1 = 0.2971	1521	10.2
318.15 K, x1 = 0.3764	1518	12.1
318.15 K, x1 = 0.4752	1515	12.3
318.15 K, x1 = 0.6014	1511	32
318.15 K, x1 = 0.8515	1502	128
318.15 K, x1 = 0.9022	1498	144
318.15 K, x1 = 0.9468	1495	159
318.15 K, x1 = 1	1486	169
323.15 K, x1 = 0.056	1506	1.11
323.15 K, x1 = 0.1311	1517	3.8
323.15 K, x1 = 0.1773	1518	5.7
323.15 K, x1 = 0.2318	1518	10.1
323.15 K, x1 = 0.2971	1515	11.1
323.15 K, x1 = 0.3764	1512	13.1
323.15 K, x1 = 0.4752	1508	13.2
323.15 K, x1 = 0.7129	1499	59
323.15 K, x1 = 0.8086	1495	88
323.15 K, x1 = 0.8515	1491	103
323.15 K, x1 = 0.9022	1488	116
323.15 K, x1 = 0.9468	1484	124
323.15 K, x1 = 1	1472	133
